Results: PubChem BioAssay (NCI)
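1) Cells in 96-well plates. 2) Compound, 48 h, 5 concentrations. 3) Linear interpolation between surrounding doses. 4) Unreached endpoint = highest concentration. TGI denotes the concentration required for complete inhibition of growth.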

Tests used:
Assay in all cases: NCI tumour cell line growth inhibition, 48 h
DLD-1 colon = tested on: DLD-1 colon
LXFL 529 NSCLC = tested on: LXFL 529 NSCLC
XF 498 CNS = tested on: XF 498 CNS
P388/ADR leukemia = tested on: P388/ADR leukemia
786-0 renal = tested on: 786-0 renal

SMILES: CC(OC(C)(C)C)[C@H](NC(=O)OCC(Cl)(Cl)Cl)C(=O)O (some centres not stated)
- TGI (DLD-1 colon): > 100 µM
- TGI (LXFL 529 NSCLC): > 100 µM
- TGI (XF 498 CNS): > 100 µM

SMILES: O=C(O)CCC(NC(=O)c1ccc(Nc2nc3cc(C(F)(F)F)ccc3nc2-c2ccccc2)cc1)C(=O)O (configuration not stated)
- TGI (DLD-1 colon): > 100 µM
- TGI (P388/ADR leukemia): > 100 µM
- TGI (XF 498 CNS): > 100 µM

SMILES: CC1(CCOCc2ccccc2)NC(=O)NC1=O (configuration not stated)
- TGI (786-0 renal): > 100 µM

SMILES: CCC(/C=C/C1OC(=O)C=CC1C)=C\C(C)C/C=C/C(C)=C/C(C)C(=O)C(C)C(O)C(C)C/C(C)=C/C(=O)O (configuration not stated)
- TGI (DLD-1 colon): 35.8 µM

SMILES: c1ccc(CCNc2ccccn2)nc1
- TGI (786-0 renal): > 100 µM

SMILES: CC1(C)N=C(N)N=C(N)N1c1ccc(CCc2ccccc2)cc1
- TGI (DLD-1 colon): > 100 µM
- TGI (P388/ADR leukemia): > 100 µM

SMILES: NCc1ccccc1-c1c2nc(c(-c3ccccc3CN)c3ccc([nH]3)c(-c3ccccc3CN)c3nc(c(-c4ccccc4CN)c4ccc1[nH]4)C=C3)C=C2
- TGI (LXFL 529 NSCLC): 46.5 µM
